The test system of this test is CD2F1 mice, L1210 leukemia ip, survival T/C. As to the kind of experiment: NCI In Vivo Anticancer Drug Screen. Data for tumor model L1210 Leukemia (intraperitoneal) in CD2F1 (CDF1) mice. The note with it: endpoint: mean survival time, higher = longer survival. Put shortly: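 Tumor-bearing mice (transplanted tumor) were split into treated and vehicle control groups, and the measured endpoint of each treated group was divided by that of its vehicle controls.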

Setting [1] is: dose: 100.0 mg/kg/injection, schedule: Q01DX009 (ip), vehicle: Klucel (hydroxypropylcellulose) (HPC).
The mark [2] stands for this setting: dose: 200.0 mg/kg/injection, schedule: Q01DX009 (ip), vehicle: Klucel (hydroxypropylcellulose) (HPC).
Setting [3] is: dose: 50.0 mg/kg/injection, schedule: Q01DX009 (ip), vehicle: saline with Tween-80.
[4] abbreviates: dose: 100.0 mg/kg/injection, schedule: Q01DX001 (ip), vehicle: saline with Tween-80.
Setting [5] is: dose: 100.0 mg/kg/injection, schedule: Q01DX009 (ip), vehicle: saline with Tween-80.
Where [6] appears, read: dose: 200.0 mg/kg/injection, schedule: Q01DX001 (ip), vehicle: saline with Tween-80.
Setting [7] is: dose: 200.0 mg/kg/injection, schedule: Q01DX009 (ip), vehicle: saline with Tween-80.
Where [8] appears, read: dose: 400.0 mg/kg/injection, schedule: Q01DX001 (ip), vehicle: saline with Tween-80.
Where [9] appears, read: dose: 100.0 mg/kg/injection, schedule: Q04DX003 (ip), vehicle: saline with Tween-80.
The mark [10] stands for this setting: dose: 200.0 mg/kg/injection, schedule: Q04DX003 (ip), vehicle: saline with Tween-80.
The mark [11] stands for this setting: dose: 400.0 mg/kg/injection, schedule: Q04DX003 (ip), vehicle: saline with Tween-80.
Where [12] appears, read: dose: 12.5 mg/kg/injection, schedule: Q01DX009 (ip), vehicle: saline with Tween-80.
The mark [13] stands for this setting: dose: 25.0 mg/kg/injection, schedule: Q01DX009 (ip), vehicle: saline with Tween-80.

Where “and” joins values, the source holds several entries; their conditions need not be identical. Equal entries are not always repeated. Inconclusive results and toxic doses are left out.

In the case of `CC(=O)OC1(C)CC(C)(C)N=[N+]1[O-]` (stereo not drawn), the T/C by setting is: (dose: 25.0 mg/kg/injection, schedule: Q01DX009 (ip), vehicle: Klucel (hydroxypropylcellulose) (HPC)) 96 % of control; (dose: 50.0 mg/kg/injection, schedule: Q01DX009 (ip), vehicle: Klucel (hydroxypropylcellulose) (HPC)) 101 % of control; under setting [1], 101 % of control; under setting [2], 105 % of control.
Consider `O=C1C(c2ccccc2)=C(c2ccccc2)C(c2ccccc2)=C1c1ccccc1`, for which the T/C was 95 % of control under setting [3]; 97 % of control under setting [4]; 91 % of control under setting [5]; 87 % of control under setting [6]; 88 % of control under setting [7]; 91 % of control under setting [8].
As to `O=C(O)C(Cl)(Br)C(Cl)c1ccccc1` (stereo not drawn), the T/C is, setting by setting: under setting [9], 100 % of control; under setting [10], 102 % of control; under setting [11], 103 % of control.
Consider `OCc1cn2c(c1CO)CCC2`, for which the T/C (dose: 12.5 mg/kg/injection, schedule: Q01DX009 (ip), vehicle: water) is 105 % of control; the T/C (dose: 22.0 mg/kg/injection, schedule: Q01DX009 (ip), vehicle: other) is 108 % of control; the T/C (dose: 25.0 mg/kg/injection, schedule: Q01DX009 (ip), vehicle: water) was 113 % of control; the T/C (dose: 33.0 mg/kg/injection, schedule: Q01DX009 (ip), vehicle: other) is 113 % of control; the T/C (dose: 50.0 mg/kg/injection, schedule: Q01DX009 (ip), vehicle: other) is 123 % of control; the T/C (dose: 75.0 mg/kg/injection, schedule: Q01DX009 (ip), vehicle: other) was 105 % of control.
With `COc1cc(N(C)C)ccc1/C=C\c1ccnc2ccccc12`, the T/C was 96 % of control (dose: 50.0 mg/kg/injection, schedule: Q01DX001 (ip), vehicle: saline with Tween-80); 95 % of control under setting [4]; 95 % of control under setting [6]; 93 % of control under setting [8].
On to `O=c1cc[nH]cc1`, for which the T/C runs as follows: under setting [5], 94 % of control; (dose: 100.0 mg/kg/injection, schedule: Q04DX003 (ip), vehicle: saline) 103 % of control; under setting [7], 100 % of control; (dose: 200.0 mg/kg/injection, schedule: Q04DX003 (ip), vehicle: saline) 97 % of control; (dose: 400.0 mg/kg/injection, schedule: Q01DX009 (ip), vehicle: saline with Tween-80) 96 % of control; (dose: 400.0 mg/kg/injection, schedule: Q04DX003 (ip), vehicle: saline) 95 % of control.
Turning to `CN1CCCN(O)C1=O`, the T/C reads like this: (dose: 37.5 mg/kg/injection, schedule: Q01DX007 (ip), vehicle: saline) 94 % of control; (dose: 75.0 mg/kg/injection, schedule: Q01DX007 (ip), vehicle: saline) 92 % of control; (dose: 150.0 mg/kg/injection, schedule: Q01DX007 (ip), vehicle: saline) 94 % of control; (dose: 300.0 mg/kg/injection, schedule: Q01DX007 (ip), vehicle: saline) 100 % of control; (dose: 600.0 mg/kg/injection, schedule: Q01DX007 (ip), vehicle: saline) 100 % of control.
In the case of `O=C1Nc2ccccc2C(=O)Nc2ccccc21`, the T/C is, setting by setting: under setting [1], 93 % of control; under setting [2], 89 % of control.
For the compound `COC(=N)c1ccc(Cl)cc1`, the T/C under setting [9] was 97 % of control, the T/C under setting [10] was 103 % of control and the T/C under setting [11] was 93 % of control.
As to `OC1CCCCC1CCl` (stereo not drawn), the T/C reads like this: (dose: 50.0 mg/kg/injection, schedule: Q01DX001 (ip), vehicle: carboxymethylcellulose (CMC)) 103 % of control; (dose: 100.0 mg/kg/injection, schedule: Q01DX001 (ip), vehicle: carboxymethylcellulose (CMC)) 97 % of control; (dose: 200.0 mg/kg/injection, schedule: Q01DX001 (ip), vehicle: carboxymethylcellulose (CMC)) 97 % of control; (dose: 400.0 mg/kg/injection, schedule: Q01DX001 (ip), vehicle: carboxymethylcellulose (CMC)) 103 % of control.
`CC1=C(C)C(=O)O[C@@H]([C@](C)(O)[C@]2(O)CC[C@@]3(O)[C@@H]4C[C@H]5O[C@]56[C@@H](O)C=CC(=O)[C@]6(C)[C@H]4CC[C@]23C)C1`: the T/C (dose: 1.0 mg/kg/injection, schedule: Q01DX009 (ip), vehicle: saline) is 113 % of control; the T/C (dose: 2.0 mg/kg/injection, schedule: Q01DX009 (ip), vehicle: saline) was 104 % of control; the T/C (dose: 2.0 mg/kg/injection, schedule: Q01DX009 (ip), vehicle: suspension in saline) is 105 % of control; the T/C (dose: 4.0 mg/kg/injection, schedule: Q01DX009 (ip), vehicle: saline) is 106 % of control; the T/C (dose: 4.0 mg/kg/injection, schedule: Q01DX009 (ip), vehicle: suspension in saline) was 108 % of control; the T/C (dose: 8.0 mg/kg/injection, schedule: Q01DX009 (ip), vehicle: saline) was 111 % of control. For the same compound, the T/C (dose: 8.0 mg/kg/injection, schedule: Q01DX009 (ip), vehicle: suspension in saline) is 114 % of control; the T/C (dose: 16.0 mg/kg/injection, schedule: Q01DX009 (ip), vehicle: saline) is 103 % of control; the T/C (dose: 16.0 mg/kg/injection, schedule: Q01DX009 (ip), vehicle: suspension in saline) was 108 % of control; the T/C (dose: 32.0 mg/kg/injection, schedule: Q01DX009 (ip), vehicle: saline) is 87 % of control; the T/C (dose: 32.0 mg/kg/injection, schedule: Q01DX009 (ip), vehicle: suspension in saline) was 96 % of control.
`CC1(c2ccc(Cl)cc2)OC(=O)C(=Cc2ccc([N+](=O)[O-])s2)C(=O)O1` (stereo not drawn): the T/C was 101 % of control (dose: 6.25 mg/kg/injection, schedule: Q01DX009 (ip), vehicle: saline with Tween-80); 98 % of control and 101 % of control under setting [12]; 96 % of control and 100 % of control under setting [13]; 100 % of control and 101 % of control under setting [3]; 102 % of control and 112 % of control under setting [5]; 97 % of control under setting [7].
With `NCC(Br)CO` (stereo not drawn), the T/C by setting is: (dose: 31.3 mg/kg/injection, schedule: Q01DX001 (ip), vehicle: other) 95 % of control; (dose: 62.5 mg/kg/injection, schedule: Q01DX001 (ip), vehicle: other) 95 % of control; (dose: 125.0 mg/kg/injection, schedule: Q01DX001 (ip), vehicle: other) 100 % of control; (dose: 250.0 mg/kg/injection, schedule: Q01DX001 (ip), vehicle: other) 101 % of control; (dose: 500.0 mg/kg/injection, schedule: Q01DX001 (ip), vehicle: other) 97 % of control.
Consider `C[C@]12CCC(=O)C=C1CC[C@@H]1[C@@H]2[C@@H](O)C[C@@]2(C)[C@H]1CC[C@]2(O)C(=O)COP(=O)(O)OCC1OC(n2ccc(N)nc2=O)C(O)C1O` (stereo partly drawn), for which the T/C (dose: 5.0 mg/kg/injection, schedule: Q01DX005 (ip), vehicle: other) was 104 % of control; the T/C (dose: 10.0 mg/kg/injection, schedule: Q01DX005 (ip), vehicle: other) was 110 % of control; the T/C (dose: 15.0 mg/kg/injection, schedule: Q01DX005 (ip), vehicle: other) was 115 % of control; the T/C (dose: 120.0 mg/kg/injection, schedule: Q01DX005 (ip), vehicle: other) is 150 % of control; the T/C (dose: 240.0 mg/kg/injection, schedule: Q01DX005 (ip), vehicle: other) was 162 % of control.
Consider `Nc1nc(N)nc(-c2ccncc2)n1`, for which the T/C is, setting by setting: under setting [12], 102 % of control; under setting [13], 106 % of control; under setting [3], 102 % of control.
Turning to `O=C(COc1cccc(Cl)c1)Nc1cccc(NC(=O)c2ccc(S(=O)(=O)F)cc2)c1`, the T/C reads like this: under setting [4], 91 % of control; under setting [6], 90 % of control; under setting [8], 101 % of control.
Consider `CCOC(=S)SCC(=O)O`, for which the T/C under setting [4] is 92 % of control and the T/C under setting [6] is 96 % of control.
Take `CCCCCCC[CH2][Sn]1([CH2]CCCCCCC)[O]C2C(CO)OC(n3ccc(=O)[nH]c3=O)C2[O]1` (stereo not drawn): the T/C (dose: 12.5 mg/kg/injection, schedule: Q01DX005 (ip), vehicle: other) is 100 % of control; the T/C (dose: 25.0 mg/kg/injection, schedule: Q01DX005 (ip), vehicle: other) is 90 % of control; the T/C (dose: 50.0 mg/kg/injection, schedule: Q01DX005 (ip), vehicle: other) is 91 % of control; the T/C (dose: 100.0 mg/kg/injection, schedule: Q01DX005 (ip), vehicle: other) is 94 % of control; the T/C (dose: 200.0 mg/kg/injection, schedule: Q01DX005 (ip), vehicle: other) is 91 % of control.
